Reference: patent US9029359B2, “Heteroaryl Btk inhibitors” (Biogen Idec MA, Inc., priority 2009, dated 2015)

Biological target: T1, BTK (Homo sapiens, UniProt Q06187)
T1 construct: purchased Upstate 14-552
Experiment: In vitro BTK kinase assay: BTK-POLYGAT-LS ASSAY
Type: biochemical
Details: ATP 10 uM
Procedure: In vitro BTK kinase assay: BTK-POLYGAT-LS ASSAY. The purpose of the BTK in vitro assay is to determine compound potency against BTK through the measurement of IC50. […] A 24 μL aliquot of a ATP/peptide master mix (final concentration; ATP 10 μM, polyGAT 100 nM) in kinase buffer (10 mM Tris-HCl pH 7.5, 10 mM MgCl2, 200 μM Na3VO4, 5 mM DTT, 0.01% Triton X-100, and 0.2 mg/ml Casein) is added to each well. […] The assay is incubated for 30 minutes before being stopped with 28 μL of a 50 mM EDTA solution. […] The plate is covered and incubated for 45 minutes at room temperature. Time resolved fluorescence (TRF) on Molecular Devices M5 (332 nm excitation; 488 nm emission; 518 nm fluorescein emission) is measured.

T1 sequence (Q06187 whole entry): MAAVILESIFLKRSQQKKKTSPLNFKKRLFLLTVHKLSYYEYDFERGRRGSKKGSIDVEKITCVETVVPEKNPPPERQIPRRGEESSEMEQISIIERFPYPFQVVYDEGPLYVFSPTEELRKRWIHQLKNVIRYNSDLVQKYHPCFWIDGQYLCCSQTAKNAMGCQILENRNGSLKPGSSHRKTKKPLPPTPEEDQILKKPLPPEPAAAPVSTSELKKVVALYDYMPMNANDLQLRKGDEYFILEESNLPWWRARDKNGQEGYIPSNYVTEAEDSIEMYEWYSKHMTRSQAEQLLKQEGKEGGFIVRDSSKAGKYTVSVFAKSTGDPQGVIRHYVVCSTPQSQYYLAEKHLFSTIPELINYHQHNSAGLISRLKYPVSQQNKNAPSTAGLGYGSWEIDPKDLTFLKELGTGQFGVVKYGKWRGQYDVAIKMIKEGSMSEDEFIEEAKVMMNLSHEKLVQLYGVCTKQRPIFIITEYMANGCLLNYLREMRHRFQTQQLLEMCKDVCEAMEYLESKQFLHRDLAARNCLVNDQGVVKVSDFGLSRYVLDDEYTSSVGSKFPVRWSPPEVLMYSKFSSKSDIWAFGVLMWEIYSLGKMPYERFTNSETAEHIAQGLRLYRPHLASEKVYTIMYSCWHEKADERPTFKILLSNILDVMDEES

O=C(CNc1ccccc1)N(CC1CCCCC1)C1CCCN(c2ncnc3[nH]ccc23)C1 (stereo not drawn) [Example 88, (N-(1-(7H-pyrrolo[2,3-d]pyrimidin-4-yl)piperidin-3-yl)-N-(cyclohexylmethyl)-2-(phenylamino)acetamide)]
IC50: 1000 to 10000 nM

O=C(CNC(=O)c1ccccc1Cl)NC1CCCN(c2ncnc3[nH]ccc23)C1 (stereo not drawn) [Example 92, (N-(2-(1-(7H-pyrrolo[2,3-d]pyrimidin-4-yl)piperidin-3-ylamino)-2-oxoethyl)-2-chlorobenzamide)]
IC50: 1000 to 10000 nM

O=C(CNC(=O)c1cccc(Cl)c1)NC1CCCN(c2ncnc3[nH]ccc23)C1 (stereo not drawn) [Example 93, (N-(2-(1-(7H-pyrrolo[2,3-d]pyrimidin-4-yl)piperidin-3-ylamino)-2-oxoethyl)-3-chlorobenzamide)]
IC50: 1000 to 10000 nM

O=C(CNC(=O)c1ccc(Cl)cc1)NC1CCCN(c2ncnc3[nH]ccc23)C1 (stereo not drawn) [Example 94, (N-(2-(1-(7H-pyrrolo[2,3-d]pyrimidin-4-yl)piperidin-3-ylamino)-2-oxoethyl)-4-chlorobenzamide)]
IC50: 1000 to 10000 nM

CC(C)(C)c1ccc(C(=O)NCC(=O)NC2CCCN(c3ncnc4[nH]ccc34)C2)cc1 (stereo not drawn) [Example 95, (N-(2-(1-(7H-pyrrolo[2,3-d]pyrimidin-4-yl)piperidin-3-ylamino)-2-oxoethyl)-4-tert-butylbenzamide)]
IC50: 100 to 999 nM

O=C(Cc1ccccc1)NCC(=O)NC1CCCN(c2ncnc3[nH]ccc23)C1 (stereo not drawn) [Example 96, (N-(1-(7H-pyrrolo[2,3-d]pyrimidin-4-yl)piperidin-3-yl)-2-(2-phenylacetamido)acetamide)]
IC50: 1000 to 10000 nM

O=C(CNC(=O)c1cccc2ccccc12)NC1CCCN(c2ncnc3[nH]ccc23)C1 (stereo not drawn) [Example 97, (N-(2-(1-(7H-pyrrolo[2,3-d]pyrimidin-4-yl)piperidin-3-ylamino)-2-oxoethyl)-1-naphthamide)]
IC50: 100 to 999 nM

O=C(CNC(=O)c1ccc2ccccc2c1)NC1CCCN(c2ncnc3[nH]ccc23)C1 (stereo not drawn) [Example 98]
IC50: 100 to 999 nM

O=C(CNC(=O)C1CCCCC1)NC1CCCN(c2ncnc3[nH]ccc23)C1 (stereo not drawn) [Example 99, (N-(2-(1-(7H-pyrrolo[2,3-d]pyrimidin-4-yl)piperidin-3-ylamino)-2-oxoethyl)cyclohexanecarboxamide)]
IC50: 1000 to 10000 nM

C[C@@H](Nc1ccccc1)C(=O)N[C@@H]1CCCN(c2ncnc3[nH]ccc23)C1 [Example 100, (R)—N—((R)-1-(7H-pyrrolo[2,3-d]pyrimidin-4-yl)piperidin-3-yl)-2-(phenylamino)propanamide]
IC50: 100 to 999 nM

C[C@@H](Nc1ccccc1)C(=O)NC1CCCN(c2ncnc3[nH]ccc23)C1 (stereo partly drawn) [Example 101, (2R)—N-(1-(7H-pyrrolo[2,3-d]pyrimidin-4-yl)piperidin-3-yl)-2-(phenylamino)propanamide]
IC50: 100 to 999 nM

C[C@H](Nc1ccccc1)C(=O)NC1CCCN(c2ncnc3[nH]ccc23)C1 (stereo partly drawn) [Example 102, (2S)—N-(1-(7H-pyrrolo[2,3-d]pyrimidin-4-yl)piperidin-3-yl)-2-(phenylamino)propanamide]
IC50: > 10000 nM

CC(C)[C@@H](Nc1ccccc1)C(=O)N[C@@H]1CCCN(c2ncnc3[nH]ccc23)C1 [Example 103, (R)—N—((R)-1-(7H-pyrrolo[2,3-d]pyrimidin-4-yl)piperidin-3-yl)-3-methyl-2-(phenylamino)butanamide]
IC50: 100 to 999 nM

O=C(N[C@@H]1CCCN(c2ncnc3[nH]ccc23)C1)[C@@H](Cc1ccccc1)Nc1ccccc1 [Example 104, (R)—N—((R)-1-(7H-pyrrolo[2,3-d]pyrimidin-4-yl)piperidin-3-yl)-3-phenyl-2-(phenylamino)propanamide]
IC50: 1000 to 10000 nM

CC(C)C[C@@H](Nc1ccccc1)C(=O)N[C@@H]1CCCN(c2ncnc3[nH]ccc23)C1 [Example 105, (R)—N—((R)-1-(7H-pyrrolo[2,3-d]pyrimidin-4-yl)piperidin-3-yl)-4-methyl-2-(phenylamino)pentanamide]
IC50: 1000 to 10000 nM
